Here are results for four molecules from patent US11034650B2, “Compounds useful for treating a Mannheimia haemolytica or Histophilus somni infection” (Intervet Inc., priority 2016, dated 2021).

Structures are written as SMILES. Values after ≈ are worked out from the molar mass of the structure shown.

The test system of one experiment is Mannheimia haemolytica MH 12587 (1071, BRD field isolate, macrolide-resistance: erm+, E+). The experiment in a line: MIC, broth-microdilution (CLSI VET01-A4), strain MH 12587. In kind it is cell-based. As to conditions: Mannheimia haemolytica strain MH 12587, broth-microdilution; unit assumed. The essentials:
(§1)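 Doubling dilution series in trays; visual read, MIC = lowest conc. with no visible turbidity; interpretation per CLSI VET01-S3.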
A general note: In broth dilution the organism is exposed to a series of concentrations in liquid medium.
Regarding `CSC(C)(C)[C@H](NC(=O)c1ccc(C#Cc2ccc(CNCC(F)(F)F)s2)cc1)C(=O)NO` [Compound 309], the MIC MH 12587 came out at 1.6 µg/mL (≈ 3.2 µM).

In the case of `CC(C)(O)[C@H](NC(=O)c1ccc(C#Cc2ccc(CN3CCOCC3)cc2)cc1)C(=O)NO` [Compound 222], the MIC MH 12587 was 1.6 µg/mL (≈ 3.54 µM).

`CSC(C)(C)[C@H](NC(=O)c1ccc(C#Cc2ccc(CNCc3ccco3)cc2)cc1)C(=O)NO` [Compound 250]: the MIC MH 12587 was 0.8 µg/mL (≈ 1.63 µM).

On to `CON=C(C)[C@H](NC(=O)c1ccc(C#Cc2ccc(CNCc3cccnc3)cc2)cc1)C(=O)NO` [Compound 388], for which the MIC MH 12587 was found to be 0.2 µg/mL (≈ 0.412 µM).

The test system of the next experiment is Mannheimia haemolytica MH 13065 (XB0446-6003.9, BRD field isolate). Put plainly: MIC, broth-microdilution (CLSI VET01-A4), strain MH 13065. In kind it is cell-based. As to conditions: Mannheimia haemolytica strain MH 13065, broth-microdilution; unit assumed. The essentials: as §1
Take `CSC(C)(C)[C@H](NC(=O)c1ccc(C#Cc2ccc(CNCC(F)(F)F)s2)cc1)C(=O)NO` [Compound 309]: the MIC MH 13065 came to 0.8 µg/mL (≈ 1.6 µM).

Regarding `CC(C)(O)[C@H](NC(=O)c1ccc(C#Cc2ccc(CN3CCOCC3)cc2)cc1)C(=O)NO` [Compound 222], the MIC MH 13065 worked out at 1.6 µg/mL (≈ 3.54 µM).

The molecule `CSC(C)(C)[C@H](NC(=O)c1ccc(C#Cc2ccc(CNCc3ccco3)cc2)cc1)C(=O)NO` [Compound 250] had an MIC MH 13065 of 0.4 µg/mL (≈ 0.814 µM).

`CON=C(C)[C@H](NC(=O)c1ccc(C#Cc2ccc(CNCc3cccnc3)cc2)cc1)C(=O)NO` [Compound 388]: the MIC MH 13065 is 0.8 µg/mL (≈ 1.65 µM).

In another experiment the test system is Mannheimia haemolytica MH 13093 (XB0472-6014.1, BRD field isolate). Put plainly: MIC, broth-microdilution (CLSI VET01-A4), strain MH 13093. In kind it is cell-based. The following applies: Mannheimia haemolytica strain MH 13093, broth-microdilution; unit assumed. The essentials:
as §1
`CSC(C)(C)[C@H](NC(=O)c1ccc(C#Cc2ccc(CNCC(F)(F)F)s2)cc1)C(=O)NO` [Compound 309] registered an MIC MH 13093 of 1.6 µg/mL (≈ 3.2 µM).

For the molecule `CC(C)(O)[C@H](NC(=O)c1ccc(C#Cc2ccc(CN3CCOCC3)cc2)cc1)C(=O)NO` [Compound 222], the MIC MH 13093 turned out to be 1.6 µg/mL (≈ 3.54 µM).

In turn, `CSC(C)(C)[C@H](NC(=O)c1ccc(C#Cc2ccc(CNCc3ccco3)cc2)cc1)C(=O)NO` [Compound 250] came in with an MIC MH 13093 of 0.4 µg/mL (≈ 0.814 µM).

`CON=C(C)[C@H](NC(=O)c1ccc(C#Cc2ccc(CNCc3cccnc3)cc2)cc1)C(=O)NO` [Compound 388] had an MIC MH 13093 of 0.8 µg/mL (≈ 1.65 µM).

Another experiment has as its system Pasteurella multocida PM 6267 (P 2225 (L386), reference strain, mouse infection strain). The experiment in a line: MIC, broth-microdilution (CLSI VET01-A4), strain PM 6267. In kind it is cell-based. As to conditions: Pasteurella multocida strain PM 6267, broth-microdilution; unit assumed. The essentials: as §1
For `CSC(C)(C)[C@H](NC(=O)c1ccc(C#Cc2ccc(CNCC(F)(F)F)s2)cc1)C(=O)NO` [Compound 309], the MIC PM 6267 came to 1.6 µg/mL (≈ 3.2 µM).

In the case of `CC(C)(O)[C@H](NC(=O)c1ccc(C#Cc2ccc(CN3CCOCC3)cc2)cc1)C(=O)NO` [Compound 222], the MIC PM 6267 was ≤ 0.1 µg/mL.

On to `CSC(C)(C)[C@H](NC(=O)c1ccc(C#Cc2ccc(CNCc3ccco3)cc2)cc1)C(=O)NO` [Compound 250], for which the MIC PM 6267 is ≤ 0.1 µg/mL.

As for `CON=C(C)[C@H](NC(=O)c1ccc(C#Cc2ccc(CNCc3cccnc3)cc2)cc1)C(=O)NO` [Compound 388], the MIC PM 6267 came to 3.1 µg/mL (≈ 6.38 µM).

The subject of another experiment is Pasteurella multocida PM 6391 (ATCC 43137, reference strain). Put plainly: MIC, broth-microdilution (CLSI VET01-A4), strain PM 6391. The format is cell-based. As to conditions: Pasteurella multocida strain PM 6391, broth-microdilution; unit assumed. The gist of the method: as §1
For the molecule `CSC(C)(C)[C@H](NC(=O)c1ccc(C#Cc2ccc(CNCC(F)(F)F)s2)cc1)C(=O)NO` [Compound 309], the MIC PM 6391 was determined as 0.4 µg/mL (≈ 0.801 µM).

Consider `CC(C)(O)[C@H](NC(=O)c1ccc(C#Cc2ccc(CN3CCOCC3)cc2)cc1)C(=O)NO` [Compound 222], for which the MIC PM 6391 is ≤ 0.1 µg/mL.

For the molecule `CSC(C)(C)[C@H](NC(=O)c1ccc(C#Cc2ccc(CNCc3ccco3)cc2)cc1)C(=O)NO` [Compound 250], the MIC PM 6391 amounted to 0.2 µg/mL (≈ 0.407 µM).

Take `CON=C(C)[C@H](NC(=O)c1ccc(C#Cc2ccc(CNCc3cccnc3)cc2)cc1)C(=O)NO` [Compound 388]: the MIC PM 6391 is ≤ 0.1 µg/mL.

The next experiment deals with Pasteurella multocida PM 10775 (080130003051, BRD field isolate). The experiment in a line: MIC, broth-microdilution (CLSI VET01-A4), strain PM 10775. The format is cell-based. The following applies: Pasteurella multocida strain PM 10775, broth-microdilution; unit assumed. The essentials:
as §1
`CSC(C)(C)[C@H](NC(=O)c1ccc(C#Cc2ccc(CNCC(F)(F)F)s2)cc1)C(=O)NO` [Compound 309]: the MIC PM 10775 was ≤ 0.1 µg/mL.

For the molecule `CC(C)(O)[C@H](NC(=O)c1ccc(C#Cc2ccc(CN3CCOCC3)cc2)cc1)C(=O)NO` [Compound 222], the MIC PM 10775 is ≤ 0.1 µg/mL.

Take `CSC(C)(C)[C@H](NC(=O)c1ccc(C#Cc2ccc(CNCc3ccco3)cc2)cc1)C(=O)NO` [Compound 250]: the MIC PM 10775 is ≤ 0.1 µg/mL.

Molecule `CON=C(C)[C@H](NC(=O)c1ccc(C#Cc2ccc(CNCc3cccnc3)cc2)cc1)C(=O)NO` [Compound 388] came in with an MIC PM 10775 of 0.2 µg/mL (≈ 0.412 µM).

The next experiment deals with Pasteurella multocida PM 12080 (IV102277-0093, BRD field isolate). The experiment in a line: MIC, broth-microdilution (CLSI VET01-A4), strain PM 12080. In kind it is cell-based. The following applies: Pasteurella multocida strain PM 12080, broth-microdilution; unit assumed. The essentials: as §1
Molecule `CSC(C)(C)[C@H](NC(=O)c1ccc(C#Cc2ccc(CNCC(F)(F)F)s2)cc1)C(=O)NO` [Compound 309] showed an MIC PM 12080 of 0.4 µg/mL (≈ 0.801 µM).

Consider `CC(C)(O)[C@H](NC(=O)c1ccc(C#Cc2ccc(CN3CCOCC3)cc2)cc1)C(=O)NO` [Compound 222], for which the MIC PM 12080 turned out to be 0.2 µg/mL (≈ 0.443 µM).

As for `CSC(C)(C)[C@H](NC(=O)c1ccc(C#Cc2ccc(CNCc3ccco3)cc2)cc1)C(=O)NO` [Compound 250], the MIC PM 12080 is ≤ 0.1 µg/mL.

With `CON=C(C)[C@H](NC(=O)c1ccc(C#Cc2ccc(CNCc3cccnc3)cc2)cc1)C(=O)NO` [Compound 388], the MIC PM 12080 is ≤ 0.1 µg/mL.

The subject of a further experiment is Mannheimia haemolytica MH 10720 (154, BRD field isolate). Put plainly: MIC, broth-microdilution (CLSI VET01-A4), strain MH 10720. The following applies: Mannheimia haemolytica strain MH 10720, broth-microdilution; unit assumed. The format is cell-based. The gist of the method: as §1
Consider `CSC(C)(C)[C@H](NC(=O)c1ccc(C#Cc2ccc(CNCC(F)(F)F)s2)cc1)C(=O)NO` [Compound 309], for which the MIC MH 10720 is ≤ 0.1 µg/mL.

Regarding `CC(C)(O)[C@H](NC(=O)c1ccc(C#Cc2ccc(CN3CCOCC3)cc2)cc1)C(=O)NO` [Compound 222], the MIC MH 10720 was found to be 0.2 µg/mL (≈ 0.443 µM).

Take `CSC(C)(C)[C@H](NC(=O)c1ccc(C#Cc2ccc(CNCc3ccco3)cc2)cc1)C(=O)NO` [Compound 250]: the MIC MH 10720 is ≤ 0.1 µg/mL.

As for `CON=C(C)[C@H](NC(=O)c1ccc(C#Cc2ccc(CNCc3cccnc3)cc2)cc1)C(=O)NO` [Compound 388], the MIC MH 10720 is 0.8 µg/mL (≈ 1.65 µM).

The next experiment relates to Mannheimia haemolytica MH 6374 (ATCC 33396, reference strain). The experiment in a line: MIC, broth-microdilution (CLSI VET01-A4), strain MH 6374. The format is cell-based. The following applies: Mannheimia haemolytica strain MH 6374, broth-microdilution; unit assumed. The gist of the method: as §1
Consider `CSC(C)(C)[C@H](NC(=O)c1ccc(C#Cc2ccc(CNCC(F)(F)F)s2)cc1)C(=O)NO` [Compound 309], for which the MIC MH 6374 came out at 0.8 µg/mL (≈ 1.6 µM).

In the case of `CC(C)(O)[C@H](NC(=O)c1ccc(C#Cc2ccc(CN3CCOCC3)cc2)cc1)C(=O)NO` [Compound 222], the MIC MH 6374 was 1.6 µg/mL (≈ 3.54 µM).

Regarding `CSC(C)(C)[C@H](NC(=O)c1ccc(C#Cc2ccc(CNCc3ccco3)cc2)cc1)C(=O)NO` [Compound 250], the MIC MH 6374 was 0.8 µg/mL (≈ 1.63 µM).

`CON=C(C)[C@H](NC(=O)c1ccc(C#Cc2ccc(CNCc3cccnc3)cc2)cc1)C(=O)NO` [Compound 388]: the MIC MH 6374 stood at 0.8 µg/mL (≈ 1.65 µM).

A further experiment concerns Mannheimia haemolytica MH 6357 (M7/2, reference strain, cattle infection strain). The experiment in a line: MIC, broth-microdilution (CLSI VET01-A4), strain MH 6357. The format is cell-based. As to conditions: Mannheimia haemolytica strain MH 6357, broth-microdilution; unit assumed. The gist of the method:
as §1
As for `CSC(C)(C)[C@H](NC(=O)c1ccc(C#Cc2ccc(CNCC(F)(F)F)s2)cc1)C(=O)NO` [Compound 309], the MIC MH 6357 was 0.8 µg/mL (≈ 1.6 µM).

`CC(C)(O)[C@H](NC(=O)c1ccc(C#Cc2ccc(CN3CCOCC3)cc2)cc1)C(=O)NO` [Compound 222] had an MIC MH 6357 of 0.8 µg/mL (≈ 1.77 µM).

In turn, `CSC(C)(C)[C@H](NC(=O)c1ccc(C#Cc2ccc(CNCc3ccco3)cc2)cc1)C(=O)NO` [Compound 250] yielded an MIC MH 6357 of 0.4 µg/mL (≈ 0.814 µM).

Turning to `CON=C(C)[C@H](NC(=O)c1ccc(C#Cc2ccc(CNCc3cccnc3)cc2)cc1)C(=O)NO` [Compound 388], the MIC MH 6357 is 0.4 µg/mL (≈ 0.824 µM).
